# Measured values reported in patent US20180243421A1, “IMMUNOSTIMULATING AGENT” (AJINOMOTO CO., INC., priority 2015, published 2018).
# Test system: anti-OVA-specific IgE antibody
# Conditions: mouse, in vivo
# Experimental: The serum sample obtained in Example 1 was measured for an anti-OVA-specific IgE antibody. The measurement method of the anti-OVA-specific IgE antibody in Example 3 and Examples 6, 9 is as follows.
# Measurement Method of anti-OVA-specific IgE Antibody
# DS mouse IgE ELISA (OVA) kit manufactured by DS Pharma Biomedical Co., Ltd. was used. The protocol is briefly shown below.
# The serum sample and a standard reagent for drawing an analytical curve are diluted with a buffer and, after stirring, left standing at room temperature for 10 min. The sample and the standard solution are added to a plate bound with an IgE capture antibody in advance and, after stirring, the mixture is left standing at room temperature for 60 min. The mixture is washed three times with wash, HRP-labeled OVA is added, and the mixture is left standing at room temperature for 30 min. The mixture is washed three times with wash, a substrate solution is added, and the mixture is left standing in dark at room temperature for 30 min. A reaction quenching liquid is added, the mixture is stirred, and the absorbance (OD Value=450 nm) is immediately measured.
# This test was performed in the same manner as in Example 3 except that N^2-hexadecanoyl-L-arginine (SZ61), N-hexadecanoylagmatine (SZ62), N^2-hexadecanoyl-L-arginine methyl ester hydrochloride (SZ63), N^2-octadecanoyl-L-glutamine tert-butyl ester (SZ64), and N^2-octadecanoyl-L-glutamine (SZ65) were used.
# This test was performed in the same manner as in Example 6 except that N-hexadecanoylagmatine (SZ62), N^2-octadecanoyl-L-glutamine tert-butyl ester (SZ64), N-docosanoyl-L-leucine methyl ester (SZ70), and N-docosanoyl-L-phenylalanine methyl ester (SZ71) were used and a positive control adjuvant Addavax™ (InvivoGen) administration group was formed.
# (§1) The allergy inducing activity test was performed in the same manner as in Example 3 except that Addavax™, N-(2-octadecyleicosanoyl)-L-leucine methyl ester (SZ86), N-hexadecanoyl-L-leucinamide (SZ90), N^2-hexadecanoyl-N^1,N^1-diethyl-L-leucinamide (SZ92), N^2-hexadecanoyl-L-arginine hexyl ester hydrochloride (SZ99) and N^2-docosanoyl-N^1,N^1-diethyl-L-glutamic acid 1-amide (SZ106) were used.
# as §1, with “N-hexadecanoyl-L-leucine” for “N^2-hexadecanoyl-L-arginine”, “(SZ97),” for “hydrochloride (SZ99) and”, “(SZ106) and N-docosanoylagmatine hydrochloride (SZ108)” for “(SZ106)”
# 8-Week-old female BALB/c mice were divided into groups (N=6), and each group was primarily immunized by dorsal-subcutaneous administration of (1) ovalbumin (OVA) (5 μg) dissolved in saline as an antigen (OVA single administration group), (2) OVA (10 μg) and aluminum hydroxide salt dissolved in saline (Alum administration group), (3) OVA 10 μg and Addavax™ (mixed with saline at 1:1) dissolved in saline (Addavax™ administration group), (4) OVA 10 μg and CpG 5 μg dissolved in saline (CpG administration group), (5) OVA 10 μg and MPL 5 μg dissolved in saline (MPL administration group), (6) OVA (5 μg) and SZ62 (0.256 μmol) dissolved or dispersed in 5% αCD-added saline (SZ62 administration group), (7) OVA (5 μg), SZ62 (0.256 μmol) and CpG 5 μg dissolved or dispersed in 5% αCD-added saline (SZ62+CpG administration group), (8) OVA 10 μg, Addavax™ (mixed with saline at 1:1) and CpG 5 μg dissolved in saline (Addavax™+CpG administration group), (9) OVA (5 μg), SZ62 (0.256 μmol) and MPL 5 μg dissolved or dispersed in 5% αCD-added saline (SZ62+MPL administration group), (10) OVA (10 μg), aluminum hydroxide salt (Alum) and MPL 5 μg dissolved in saline (Alum+MPL administration group), each per mouse. One week later, the secondary immunization was carried out by dorsal-subcutaneous administration of solutions or dispersions similar to those of the above-mentioned (1) to (10) again.
Compound,allergy inducing activity as compared to Addavax,anti-OVA-specific IgE antibody production as compared to the OVA single administration group,allergy inducing activity as compared to aluminum hydroxide gel adjuvant,allergy inducing activity as compared to aluminum hydroxide gel adjuvant and Addavax
"CCCCCCCCCCCCCCCCCCCCCC(=O)NC(=N)NCCCCN.Cl [SZ108, N-docosanoylagmatine hydrochloride salt]",low allergy inducing activity,a significant increase in the anti-OVA-specific IgE antibody production was not observed,,
"CCCCCCCCCCCCCCCC(=O)N[C@@H](CC(C)C)C(=O)N(CC)CC [SZ92, N^2-hexadecanoyl-N^1,N^1-diethyl-L-leucinamide]",low allergy inducing activity,a significant increase in the anti-OVA-specific IgE antibody production was not observed,,
"CCCCCCCCCCCCCCCC(=O)N[C@@H](CCCNC(=N)N)C(=O)OCCCCCC.Cl [SZ99, N^2-hexadecanoyl-L-arginine hexyl ester hydrochloride salt]",low allergy inducing activity,a significant increase in the anti-OVA-specific IgE antibody production was not observed,,
"CCCCCCCCCCCCCCCC(=O)NC(=N)NCCCCN [SZ62, N-hexadecanoylagmatine]",,,lower allergy inducing activity,lower allergy inducing activity
"CCCCCCCCCCCCCCCC(=O)N[C@@H](CC(C)C)C(=O)OCCCCCC [SZ97, N-hexadecanoyl-L-leucine hexyl ester]",low allergy inducing activity,a significant increase in the anti-OVA-specific IgE antibody production was not observed,,
"CCCCCCCCCCCCCCCCCCC(CCCCCCCCCCCCCCCCCC)C(=O)N[C@@H](CC(C)C)C(=O)OC [SZ86, N-(2-octadecyleicosanoyl)-L-leucine methyl ester]",low allergy inducing activity,a significant increase in the anti-OVA-specific IgE antibody production was not observed,,
"CCCCCCCCCCCCCCCCCCCCCC(=O)N[C@@H](CCC(=O)O)C(=O)N(CC)CC [SZ106, N^2-docosanoyl-N^1,N^1-diethyl-L-glutamic acid 1-amide]",low allergy inducing activity,a significant increase in the anti-OVA-specific IgE antibody production was not observed,,
